# Data taken from US7981926B2, “Fluorotaxoids” (Research Foundation of State University of New York, priority 2005, dated 2011).
# Read-outs that look alike come from different tables or passages of the source.
# How the values were obtained:
# [1] = system: MCF7 (mammary carcinoma); assay: Tumor growth inhibitory activity (cytotoxicity), SRB method of Skehan et al, MCF7; type: cell-based, human; conditions: read-out: IC50 MCF7 (breast)
# From the text: (§1) The results were obtained according to the methods of Skehan et al (See Skehan et al., J. Nat. Cancer Inst., 82, 1107 (1990)), as more fully described in the Examples. The resistance factor (R/S) shown in the table is a measure of the degree of resistance of a cell line against a taxoid compound. The resistance factor is a ratio of the cytoxicity of a taxoid compound against a drug-resistant cell line (R) as compared to its cytoxicity against a drug-sensitive cell line (S).
# (§2) In the tables, lower numbers indicate higher potency (or greater activity). Paclitaxel was used as the standard for comparison. The data represent the mean values of at least three separate experiments.
# (§3) Assessment of cell growth inhibition was determined according to the methods of Skehan et al (See Skehan et al., J. Nat. Cancer Inst., 82, 1107 (1990)). Briefly, cells were plated between 400 and 1200 cells/well in 96 well plates and incubated at 37° C. for 15-18 h prior to drug addition to allow attachment of cells. Compounds tested were solubilized in 100% DMSO and further diluted in RPMI-1640 containing 10 mM HEPES. Each cell line was treated with 10 concentrations of compounds (5 log range). After a 72 h incubation, 100 μL of ice-cold 50% TCA was added to each well and incubated for 1 h at 4° C. Plates were then washed 5 times with tap water to remove TCA, low-molecular-weight metabolites and serum proteins. Sulforhodamine B (SRB) (0.4%, 50 μL) was added to each well. Following a 5 minute incubation at room temperature, plates were rinsed 5 times with 0.1% acetic acid and air dried. Bound dye was solubilized with 10 mM Tris Base (pH 10.5) for 5 min on a gyratory shaker. Optical density was measured at 570 nm.
# (§4) Data were fit with the Sigmoid-Emax concentration-effect model with non-linear regression, weighted by the reciprocal of the square of the predicted response (see Holford, N. H. G.; Scheiner, L. B., “Understanding the dose-effect relationship: Clinical applications of pharmaco-kinetic-pharmacodynamic models,” Clin. Pharmacokin., 6, 429-453 (1981)). The fitting software was developed by the Roswell Park Cancer Institute with Microsoft FORTRAN, and uses the Marquardt algorithm (see Marquardt, D. W., “An algorithm for least squares estimation of nonlinear parameters,” J. Soc. Ind. Appl. Math., 11, 431-441 (1963)) as adopted by Nash for the non-linear regression (see Nash, J. C., “Compact numerical method for computers: Linear algebra and function minimization,” John Wiley & Sons, New York, 1979).
# [2] = system: MCF7-R (mammary carcinoma cells 250-fold resistant to paclitaxel); assay: Tumor growth inhibitory activity (cytotoxicity), SRB method of Skehan et al, MCF7-R; type: cell-based, human; conditions: for IC50: read-out: IC50 MCF7-R (breast); for R/S (resistance factor): ratio of cytotoxicity against drug-resistant MCF7-R (R) to drug-sensitive MCF7 (S)
# From the text: as §1, §2, §3, §4
# [3] = Homo sapiens, MCF7, 72 h drug exposure, SRB, mean of at least three separate experiments
# [4] = Homo sapiens, MCF7R, drug-resistant cell line, 72 h drug exposure, SRB, mean of at least three separate experiments
Compound,"IC50 [1, 3] [pM]","IC50 [2, 4] [pM]",R/S (resistance factor) [2],melting point [°C],"IC50 ([1]; Homo sapiens, MCF7, 72 h) [pM]","IC50 ([2]; Homo sapiens, MCF7R, 72 h) [pM]","IC50 ([1]; 72 h drug exposure, SRB, mean of at least three separate experiments) [pM]","IC50 ([2]; drug-resistant cell line, 72 h drug exposure, SRB, mean of at least three separate experiments) [pM]"
"CCC(=O)O[C@H]1C(=O)[C@@]2(C)C([C@H](OC(=O)c3ccccc3)[C@]3(O)C[C@H](OC(=O)[C@H](O)[C@H](C=C(F)F)NC(=O)OC(C)(C)C)C(C)=C1C3(C)C)[C@]1(OC(C)=O)CO[C@@H]1C[C@@H]2O (stereo partly shown) [SB-T-12853, 3′-Dephenyl-3′-(2,2-difluorovinyl)-10-propanoyl-docetaxel]",120,1200,10,175 to 181,–,–,–,–
"CC(=O)O[C@H]1C(=O)[C@@]2(C)C([C@H](OC(=O)c3ccccc3)[C@]3(O)C[C@H](OC(=O)[C@H](O)[C@H](C=C(F)F)NC(=O)OC(C)(C)C)C(C)=C1C3(C)C)[C@]1(OC(C)=O)CO[C@@H]1C[C@@H]2O (stereo partly shown) [SB-T-12851, 10-Acetyl-3′-dephenyl-3′-(2,2-difluorovinyl)docetaxel]",99,950,9.6,155 to 160,–,–,–,–
"CC(=O)O[C@@]12CO[C@@H]1C[C@H](O)[C@@]1(C)C(=O)[C@H](OC(=O)N(C)C)C3=C(C)[C@@H](OC(=O)[C@H](O)[C@H](C=C(F)F)NC(=O)OC(C)(C)C)C[C@@](O)([C@@H](OC(=O)c4ccccc4)C12)C3(C)C (stereo partly shown) [SB-T-12854, 3′-Dephenyl-3′-(2,2-difluorovinyl)-10-dimethylcarbamoyldocetaxel]",–,–,33,166 to 170,130,4270,–,–
"COC(=O)O[C@H]1C(=O)[C@@]2(C)C([C@H](OC(=O)c3ccccc3)[C@]3(O)C[C@H](OC(=O)[C@H](O)[C@H](C=C(F)F)NC(=O)OC(C)(C)C)C(C)=C1C3(C)C)[C@]1(OC(C)=O)CO[C@@H]1C[C@@H]2O (stereo partly shown) [SB-T-12855, 3′-Dephenyl-3′-(2,2-difluorovinyl)-10-methoxycarbonyldocetaxel]",140,1290,9.2,144 to 148,–,–,–,–
"CCC(=O)O[C@H]1C(=O)[C@@]2(C)C([C@H](OC(=O)c3cccc(N=[N+]=[N-])c3)[C@]3(O)C[C@H](OC(=O)[C@H](O)[C@H](C=C(F)F)NC(=O)OC(C)(C)C)C(C)=C1C3(C)C)[C@]1(OC(C)=O)CO[C@@H]1C[C@@H]2O (stereo partly shown) [SB-T-12853-3, 3′-Dephenyl-3′-(2,2-difluorovinyl)-2-debenzoyl-2-(3-azidobenzoyl)-10-propanoyldocetaxel]",130,380,2.9,–,–,–,–,–
"COc1cccc(C(=O)O[C@H]2C3[C@](C)(C(=O)[C@H](OC(=O)N(C)C)C4=C(C)[C@@H](OC(=O)[C@H](O)[C@H](C=C(F)F)NC(=O)OC(C)(C)C)C[C@]2(O)C4(C)C)[C@@H](O)C[C@H]2OC[C@@]32OC(C)=O)c1 (stereo partly shown) [SB-T-12854-1, 3′-dephenyl-3′-(2,2-difluorovinyl)-2-debenzoyl-2-(3-methoxybenzoyl)-10-dimethylcarbamate-docetaxel]",–,–,8.7,–,110,960,–,–
"CC(=O)O[C@@]12CO[C@@H]1C[C@H](O)[C@@]1(C)C(=O)[C@H](OC(=O)N(C)C)C3=C(C)[C@@H](OC(=O)[C@H](O)[C@H](C=C(F)F)NC(=O)OC(C)(C)C)C[C@@](O)([C@@H](OC(=O)c4cccc(Cl)c4)C12)C3(C)C (stereo partly shown) [SB-T-12854-4, 3′-Dephenyl-3′-(2,2-difluorovinyl)-2-debenzoyl-2-(3-chlorobenzoyl)-10-dimethylcarbamoyldocetaxel]",–,–,2.8,–,930,2600,–,–
"CCC(=O)O[C@H]1C(=O)[C@@]2(C)C([C@H](OC(=O)c3cccc(F)c3)[C@]3(O)C[C@H](OC(=O)[C@H](O)[C@H](C=C(F)F)NC(=O)OC(C)(C)C)C(C)=C1C3(C)C)[C@]1(OC(C)=O)CO[C@@H]1C[C@@H]2O (stereo partly shown) [SB-T-12853-2, 3′-Dephenyl-3′-(2,2-difluorovinyl)-2-debenzoyl-2-(3-fluorobenzoyl)-10-propanoyldocetaxel]",230,2540,11,–,–,–,–,–
"CC(=O)OC12COC1CC(O)C1(C)C(=O)C(OC(=O)C3CC3)C3=C(C)C(OC(=O)C(O)C(C=C(F)F)NC(=O)OC(C)(C)C)CC(O)(C(OC(=O)c4cccc(Cl)c4)C21)C3(C)C (stereo not shown) [SB-T-12852-4, 3′-Dephenyl-3′-(2,2-difluorovinyl)-2-debenzoyl-2-(3-chlorobenzoyl)-10-cyclopropanecarbonyldocetaxel]",–,–,4.2,–,–,–,120,500
"COC(=O)O[C@H]1C(=O)[C@@]2(C)C([C@H](OC(=O)c3cccc(N=[N+]=[N-])c3)[C@]3(O)C[C@H](OC(=O)[C@H](O)[C@H](C=C(F)F)NC(=O)OC(C)(C)C)C(C)=C1C3(C)C)[C@]1(OC(C)=O)CO[C@@H]1C[C@@H]2O (stereo partly shown) [SB-T-12855-3, 3′-Dephenyl-3′-(2,2-difluorovinyl)-2-debenzoyl-2-(3-azidobenzoyl)-10-methoxycarbonyldocetaxel]",76,400,5.3,–,–,–,–,–
